Like-named read-outs stand apart in the source and are kept apart here. Marks after values point to notes of the source that are not given here.
Experiments:
[1] = tested on: Sprague-Dawley rats with closed head injury; assay: Closed Head Injury (CHI) model, moderate head injury, treatment 24 h after trauma; format: in vivo, rat; details: for effect on saturation of brain haemoglobin with oxygen HbSat (NIRS) / effect on the redox state of CytOx (NIRS) / effect on total brain haemoglobin concentration [HbTot] (NIRS): i.v. 0.5 mg/kg.min 10 min, then 0.1 mg/kg.min 45 min, 24 h after moderate head injury
Excerpt: The impact area was centered between bregma and lamda.
Near-infrared spectroscopy (NIRS) of the rat brain ‘in vivo’ allows to quantify non-invasively saturation of brain haemoglobin with oxygen (HbSat) and total brain haemoglobin concentration ([HbTot]). The latter is a measure for cerebral blood volume (CBV). Changes in the redox state of the mitochondrial enzyme cytochrome oxidase (CytOx), an indicator for tissue oxygenation, can also be monitored.
HbSat is not affected by compound 1 and the racemate (Comp. 1 and Comp. 2).
The effects of treatment with Compound 2 (i.v. infusion at a dose of 0.1 mg/kg.min during 30 min) at 24 h after moderate trauma were studied using different anesthetics (isoflurane, chloralhydrate, pentobarbital). When chloralhydrate (400 mg/kg i.p) is used as anesthetic, ICP decreases to 75% of initial value and MABP gradually increases to 110% of initial value (medians, n=6). […] Barbiturates also reduce the ICP and an important additional effect can be obtained with the compound.

non-traumatised rats = assay: ICP and blood pressure in non-traumatized rats; format: in vivo, rat; details: i.v. 0.5 mg/kg/min 10 minutes, then 0.1 mg/kg/min 50 min; anaesthetised
Description: For comparison, two commercially available H2-agonists (dimaprit and impromidine) were also tested by infusion into non-traumatized rats, using a dose of 0.5 mg/kg/min for 10 minutes for dimaprit and increasing doses up to 3.75 mg/kg/hour for impromidine.
Rats The effect of Compound 2, Compound 1 and Racemate (comp. 1 and comp. 2) on ICP, MABP and CPP was tested in anaesthetised non-traumatised rats. […] Conclusion

[2] = tested on: Sprague-Dawley rats with closed head injury; assay: Closed Head Injury (CHI) model, severe head injury; details: for CPP (%), average change over treatment period, median (95% C.I.) / ETCO2 (%), average change over treatment period, median (95% C.I.) / ICP (%), average change over treatment period, % change of initial value, median (95% C.I.) / MABP (%), average change over treatment period, median (95% C.I.) / Resp. rate(%), average change over treatment period, median (95% C.I.) / Heart rate(%), average change over treatment period, median (95% C.I.): 0.5 mg/kg/min 10 min, then 0.1 mg/kg/min 50 min, start 20 min after severe CHI, n = 10; for Effect on ICP: 0.5 mg/kg/min for 10 min, first 15 minutes, 6 rats
Description: (§1) A clinically relevant rat model for traumatic brain injury was used to test the compounds according to the invention and the commercially available compounds. […] Trauma was induced in intubated, isoflurane anesthetized (1.5% isoflurane in a mixture of 30% O2 and 70% N2O) Sprague-Dawley rats (380-400 g) stereotaxically positioned on a table mounted on 4 springs. A 400 g steel cylinder, protected with a 9 mm diameter silicon disc, was dropped on the unprotected skull from a height of either 70 cm or 50 cm (respectively ‘severe’ and ‘moderate’ head injury). The impact area was centered between bregma and lamda. ICP was recorded using a Codman microsensor probe inserted in the parietal cortex. […] The severe head injury mode was used for the evaluation of pharmacological effects immediately after trauma (screening procedure). […] In pharmacological studies, animals with a pathological ICP between 12.5 and 35 mm Hg were included. The changes in ICP, mean arterial blood pressure (MABP) and cerebral perfusion pressure CPP (=MABP—CPP) were expressed as percentage of the initial value at onset of the treatment.
(§2) On a weekly base, 4 treated groups of 3 rats were compared with 3 saline treated animals. Since conventional statistical methods require a larger amount of animals, a sequential procedure was used. Sequential methods operate in different stages. At each stage, a group of animals was selected as homogeneous as possible. Animals were randomly allocated to either drugs or saline. […] Given the biological relevant level of activity that must be detected, the expected fraction of false positive and negative results was known and fixed. A sequential two-sample grouped rank test was used.
(§3) Treatment was started at 20 min after severe head injury and involved administering a dose of 0.5 mg/kg/min during 10 minutes, followed by 0.1 mg/kg/min during 50 min.
(§4) Ranitidine was infused for 6 min at a dose of 2 mg/kg/min in the rat CHI-model after inflicting severe head injury. Solvent (NaCl+H2T) was given at the same rate. In each group, 6 rats were treated. […] The percentage of reduction are calculated as % change of the ICP recorded at the onset of the treatment and at the end of the infusion.
(§5) A number of commercially available H1- and H2-antagonists was infused for 10 min at a dose of 0.5 mg/kg/min in the rat CHI-model after inflicting severe head injury. Solvent (NaCl+H2T) was given at the same rate. In each group, 6 rats were treated.

[3] = biological target: T1, human histamine H1-receptor (Homo sapiens, UniProt P35367); assay: Radioligand binding, histamine H1-receptor, competitive inhibition of [3H]Pyrilamine; details: CHO-cells transfected with the human histamine H1-receptor, read-out: H1-antagonist activity (pIC50) (converted)
T1 construct: expressed in transfected cells; host or cells: CHO cells
Description: Competitive inhibition of [^3H] […] Incubation was done during 150 min at 22° C.

histamine H2-receptor = biological target: T2, histamine H2-receptor (Cavia porcellus, UniProt P47747); assay: Radioligand binding, histamine H2-receptor, guinea pig striatum cells, [125I]APT; details: [125I]APT 0.1 nM, 150 min at 22° C., read-out: H2-antagonist activity (pIC50) (converted)
T2 construct: using guinea pig striatum cells and [^125I]APT as the radioligand; from tissue; host or cells: guinea pig striatum

[4] = tested on: rabbits with cortical cold lesion; assay: Cold lesion-induced rise of ICP in rabbits; format: in vivo, rabbit; details: 2 mg/kg/min for 10 min, one day after cryo-lesion
Description: Cryo-lesions were induced in adult rabbits to obtain a pathological ICP that is caused by tissue oedema. A 8 mm stainless steel rod was placed at predetermined coordinates on the exposed skull of deeply anaesthetised rabbits and cooled for 10 min with liquid nitrogen. One day later the animals were re-anaesthetised and ICP and blood pressure continuously recorded as described for the rat. After a stabilisation period of 15 min, Compound 1 was infused for 10 min at a dose of 2 mg/kg/min. Solvent (preclinical formulation containing 10% HP-β-CD, pH 4) was given for 10 min at a rate of 2 ml/min.

[5] = tested on: Sprague-Dawley rats with closed head injury; details: for effect on the lowering of the blood pressure: rat, in vivo
Description: as §1, §2, §3, §4, §5

[6] = tested on: traumaticaly induced brain edema; details: prior treatment; cited from earlier work
[7] = i.v. 1 mg/kg/min during 10 min, repeated, start 20 min after severe head injury
[8] = i.v. 0.1 mg/kg.min 30 min, chloralhydrate 400 mg/kg i.p. anesthesia, n=6
[9] = i.v. 0.1 mg/kg.min 30 min, pentobarbital 60 mg/kg i.p. anesthesia, n=6
[10] = continuous infusion of 0.1 mg/kg.min

T1 sequence (P35367 whole entry): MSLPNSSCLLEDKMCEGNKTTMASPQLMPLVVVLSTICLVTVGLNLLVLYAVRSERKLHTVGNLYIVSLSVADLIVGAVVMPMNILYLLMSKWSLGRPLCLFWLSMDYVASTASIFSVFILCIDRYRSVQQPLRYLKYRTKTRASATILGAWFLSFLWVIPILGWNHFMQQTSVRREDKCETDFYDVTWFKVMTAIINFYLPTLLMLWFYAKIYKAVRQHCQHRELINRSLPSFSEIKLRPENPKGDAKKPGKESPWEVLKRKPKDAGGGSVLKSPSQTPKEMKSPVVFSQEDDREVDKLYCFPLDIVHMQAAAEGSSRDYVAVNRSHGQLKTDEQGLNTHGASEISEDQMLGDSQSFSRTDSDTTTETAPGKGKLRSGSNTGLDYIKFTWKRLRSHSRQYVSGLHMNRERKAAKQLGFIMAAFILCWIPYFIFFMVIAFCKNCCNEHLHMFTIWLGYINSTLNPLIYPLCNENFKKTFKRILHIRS
T2 sequence (P47747 whole entry): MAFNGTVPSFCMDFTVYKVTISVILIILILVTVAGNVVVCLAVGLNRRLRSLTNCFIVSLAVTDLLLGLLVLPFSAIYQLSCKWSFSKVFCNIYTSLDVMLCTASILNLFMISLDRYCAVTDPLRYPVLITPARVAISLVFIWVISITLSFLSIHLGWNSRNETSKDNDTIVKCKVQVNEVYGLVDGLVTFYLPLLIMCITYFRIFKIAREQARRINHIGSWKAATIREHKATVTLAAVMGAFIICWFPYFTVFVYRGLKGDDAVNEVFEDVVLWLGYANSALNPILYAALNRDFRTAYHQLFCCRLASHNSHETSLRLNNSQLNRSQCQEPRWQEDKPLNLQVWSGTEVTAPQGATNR

For `Cc1nc2n(C)c3ccccc3n2c(=O)c1CCN1CCC(C2c3ccccc3CCn3c2nc2ccccc23)CC1Cc1ccccc1` (racemic) [Racemate (comp. 1 and comp. 2), pyrimido[1,2-a]benzimidazol-4(10H)-one, 3-[2-[4-(11 ,12-dihydro-6H-benzimidazo[2,1-b][3]benzazepin-6-yl)-2-(phenylmethyl)-1-piperidinyl]ethyl]-2,10-dimethyl (E)-2-butenedioate (2:3) hydrate (1:1)], the “effect on saturation of brain haemoglobin with oxygen HbSat (NIRS)” value (“effect on saturation” below) [1] was “not affected”, the “effect on the redox state of CytOx (NIRS)” value (“effect on the redox state” below) [1] was “do not have an effect” and the “effect on total brain haemoglobin concentration [HbTot] (NIRS)” value (“effect … [HbTot] (NIRS)” for short) [1] was “do not have a significant effect”. For the same compound, the “effect on ICP, MABP and CPP in non-traumatised rats” value (from here on “effect … in non-traumatised rats”) (non-traumatised rats) was “comparable with those obtained in the traumatized animals”, the “CPP (%), average change over treatment period, median (95% C.I.)” value (shortened to “CPP (%), average change”) [2] was 7.5 (−2.4; 15.5) % and the “ETCO2 (%), average change over treatment period, median (95% C.I.)” value (shortened to “ETCO2 (%), average change”) [2] was 2.4 (−7.8; 3.8) %. For the same compound, the “ICP (%), average change over treatment period, % change of initial value, median (95% C.I.)” value (“ICP (%), average change” for short) [2] was −19.1 (−24.9; −10.8)* %, the “MABP (%), average change over treatment period, median (95% C.I.)” value (“MABP (%), average change” below) [2] was 0.6 (−5.1; 8.5) % and the “Resp. rate(%), average change over treatment period, median (95% C.I.)” value (from here on “Resp. rate(%), average change”) [2] was 9.6 (3.0; 14.8) %.
With `Cc1nc2n(C)c3ccccc3n2c(=O)c1CCN1CCC(C2c3ccccc3CCn3c2nc2ccccc23)CC1Cc1ccccc1` (single isomer, unassigned) [Compound 1, pyrimido[1,2-a]benzimidazol-4(10H)-one, 3-[2-[4-(11 ,12-dihydro-6H-benzimidazo[2,1-b][3]benzazepin-6-yl)-2-(phenylmethyl)-1-piperidinyl]ethyl]-2,10-dimethyl (E)-2-butenedioate (2:3) hydrate (1:1)] the IC50 [3] was 0.2 µM, the IC50 (histamine H2-receptor) was 1 µM and the “effect on saturation” value [1] was “not affected”. The “effect on the redox state” value [1] was “do not have an effect”, the “effect … [HbTot] (NIRS)” value [1] was “do not have a significant effect” and the “effect … in non-traumatised rats” value (non-traumatised rats) was “comparable with those obtained in the traumatized animals”. For the same compound, the “ICP after termination of infusion” value [4] was “significant ICP reduction”, the ICP during infusion [4] was “no immediate decrease in ICP” and the “blood pressure during infusion” value [4] was “blood pressure drops”. For the same compound, the “CPP (%), average change” value [2] was −1.9 (−8.9; 0.4) %, the “ETCO2 (%), average change” value [2] was 2.2 (−0.8; 8.4) % and the “Heart rate(%), average change over treatment period, median (95% C.I.)” value [2] was −4.1 (−11.4; 1.9) %. The “ICP (%), average change” value [2] was −15.4 (−22.6; −11.5)* %, the “MABP (%), average change” value [2] was −3.6 (−11.9; −1.5) % and the “Resp. rate(%), average change” value [2] was 5.3 (−3.3; 13.6) %. The “effect on ICP during 10 min infusion (dose response)” value ([2]; 0.125, 0.25, 0.5, 1 and 2 mg/kg/min for 10 min) was “sustained dose-dependent decrease of ICP”, the “effect on ICP in the 10 min period following the infusion” value ([2]; 0.125-2 mg/kg/min for 10 min) was “highly significant dose-dependent effect on ICP remains present” and the “dose yielding a statistically significant larger reduction in ICP than solvent” value ([2]; 10 min infusion) was no less than 1 mg/kg/min. For the same compound, the “effect of repeated infusion on ICP” value [2, 7] was “rapid reduction of ICP” and the “effect of repeated infusion on blood pressure” value [2, 7] was “Blood pressure drops during Compound 1 treatment but is restored again after this episode”.
In the case of `Cc1nc2n(C)c3ccccc3n2c(=O)c1CCN1CCC(C2c3ccccc3CCn3c2nc2ccccc23)CC1Cc1ccccc1` (single isomer, unassigned) [Compound 2, pyrimido[1,2-a]benzimidazol-4(10H)-one, 3-[2-[4-(11 ,12-dihydro-6H-benzimidazo[2,1-b][3]benzazepin-6-yl)-2-(phenylmethyl)-1-piperidinyl]ethyl]-2,10-dimethyl (E)-2-butenedioate (2:3) hydrate (1:1)], the IC50 [3] is reported as 0.794 µM, the “ICP, % of initial value (median)” value [1, 8] is reported as 75 % of initial value and the “MABP, % of initial value (median)” value [1, 8] is reported as 110 % of initial value. For the same compound, the “ICP, % of initial value (median)” value [1, 9] was 64 % of initial value, the “MABP, % of initial value at the end of the infusion (median)” value [1, 9] was 141 % of initial value and the “effect on saturation” value [1] was “small but statistically significant reduction”. The “effect on the redox state” value [1] was “do not have an effect”, the “effect … [HbTot] (NIRS)” value [1] was “do not have a significant effect” and the “effect … in non-traumatised rats” value (non-traumatised rats) was “comparable with those obtained in the traumatized animals”. For the same compound, the “CPP (%), average change” value [2] was 24.2 (0.9; 43.6)* %, the “ETCO2 (%), average change” value [2] was −4.4 (−8.9; 2.3)* % and the “Heart rate(%), average change over treatment period, median (95% C.I.)” value [2] was −9.6 (−21.8; 0.7) %. For the same compound, the “ICP (%), average change” value [2] was −15.3 (−20.0; −9.5)* %, the “MABP (%), average change” value [2] was 18.8 (−2.0; 31.0)* % and the “Resp. rate(%), average change” value [2] was 6.6 (−1.3; 14.6) %. For the same compound, the “increases in MABP observed” value [2, 10] was no more than 20%, the “maximal reduction of ICP versus infusion preceded by loading dose” value [2, 10] was “comparable” and the “time required to obtain maximal reduction of ICP (median)” value [2, 10] was 30 min. For the same compound, the “median MABP increase at the end of the infusion” value ([2]; continuous infusion of 0.1 mg/kg.min, n=6) was 9%.
In the case of `CN(C)CCC(c1ccc(Cl)cc1)c1ccccn1` (stereo not shown) [Chlorpheniramine, reference compound], the “effect on the lowering of the blood pressure” value (“effect on the lowering” below) [5] is reported as “no or little effect” and the “Effect on ICP” value ([2]; severe head injury) is reported as “−”.
In the case of `CN/C(=N/CCSCc1nc[nH]c1C)NC#N` [Cimetidine, cimetidine], the “increased brain water content and elevated plasma and brain histamine levels” value [6] is listed as “prevented”.
In the case of `CN(C)CCOC(c1ccccc1)c1ccccc1` [Diphenhydramine, diphenhydramine, reference compound], the “effect on the lowering” value [5] is reported as “no or little effect” and the “reduction in ICP” value ([2]; 1 mg/kg/min for 10 min, severe head injury, three rats) is reported as 34%.
With `OCCOCCN1CCN(C(c2ccccc2)c2ccc(Cl)cc2)CC1` (stereo not shown) [Hydroxyzine] the “Effect on ICP” value ([5]; iv, 0.5 mg/kg, 0.25 h) was “−”.
In the case of `CC(CN1c2ccccc2Sc2ccccc21)N(C)C` (stereo not shown) [Promethazine, reference compound], the “effect on the lowering” value [5] is reported as “no or little effect” and the “Effect on ICP” value ([2]; severe head injury) is reported as “−”.
For `COc1ccc(CN(CCN(C)C)c2ccccn2)cc1` [Pyrilamine], the “effect on the lowering” value [5] is given as “no or little effect” and the “increased brain water content and elevated plasma and brain histamine levels” value [6] is given as “failed to reduce the increased brain water content”.
Work on `CNC(=C[N+](=O)[O-])NCCSCc1ccc(CN(C)C)o1` [Ranitidine, ranitidine, reference compound] yielded an IC50 (histamine H2-receptor) of 3.16 µM.
For `c1cc(CN2CCCCC2)cc(OCCCNc2nc3ccccc3s2)c1` [Zolantidine, reference compound], the “effect on the lowering” value [5] was “no or little effect” and the “Effect on ICP” value ([2]; severe head injury) was “−”.

— US7732437B2, “Use of anti-histaminics for acute reduction of elevated intracranial pressure” (Janssen Pharmaceutica, NV., priority 2001, dated 2010)
